Where two headings read alike, the source gives them in different places.
What was measured:
[1] = biological target: T1, human recombinant histamine H2 receptor (Homo sapiens, UniProt P25021); test: Histamine H2 radioligand binding ([125I]Aminopotentidine); details: for inhibition at 0.1 µM: 0.1 μM compound; for inhibition at 0.3 µM: 0.3 μM compound
T1 construct: expressed in transfected cells; host or cells: CHO-K1 cells
Experimental: Non-specific binding was estimated in the presence of 3 μM Tiotidine. […] Biochemical assay results are presented as the percent inhibition of specific binding in Table 5.
Non-specific binding was estimated in the presence of 3 μM Tiotidine. […] Compounds were screened at 1 μM, using 1% DMSO as vehicle. Biochemical assay results are presented as the percent inhibition of specific binding in Table 6.

[2] = biological target: T2, human recombinant adrenergic α1D receptor (Homo sapiens, UniProt P25100); test: Adrenergic α1D radioligand binding ([3H]Prozosin); design: Inhibition of ligand binding, Adren. alpha1D: concentration or dose not given beside the values; details: percent inhibition of specific binding
T2 construct: expressed in transfected cells; host or cells: HEK-293 cells
T2 sequence (P25100 1-572): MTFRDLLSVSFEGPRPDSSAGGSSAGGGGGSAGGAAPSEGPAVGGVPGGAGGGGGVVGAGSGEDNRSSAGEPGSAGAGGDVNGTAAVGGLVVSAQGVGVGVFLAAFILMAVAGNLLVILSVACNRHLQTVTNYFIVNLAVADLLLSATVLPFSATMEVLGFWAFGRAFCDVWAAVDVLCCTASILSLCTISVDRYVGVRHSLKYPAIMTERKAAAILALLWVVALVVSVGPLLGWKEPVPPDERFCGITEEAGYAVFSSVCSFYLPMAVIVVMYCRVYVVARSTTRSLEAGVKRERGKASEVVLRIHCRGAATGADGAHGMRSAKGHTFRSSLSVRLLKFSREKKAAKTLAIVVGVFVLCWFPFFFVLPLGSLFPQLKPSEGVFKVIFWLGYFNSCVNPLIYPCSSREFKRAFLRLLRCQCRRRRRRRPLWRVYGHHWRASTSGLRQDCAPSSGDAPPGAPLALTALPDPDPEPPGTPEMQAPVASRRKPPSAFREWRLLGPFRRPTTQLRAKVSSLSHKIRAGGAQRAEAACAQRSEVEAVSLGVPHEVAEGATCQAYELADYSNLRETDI
Experimental: Compounds of invention were incubated with 0.6 nM [^3H]Prozosin for 60 minutes at 25° C. Non-specific binding was estimated in the presence of 10 μM phentolamine. Receptor proteins were filtered and washed, the filters were then counted to determine [^3H]Prozosin specifically bound. […] Biochemical assay results are presented as the percent inhibition of specific binding in Table 6.

[3] = biological target: T3, human recombinant serotonin (5-Hydroxytryptamine) 5-HT2A receptor (Homo sapiens, UniProt P28223); test: Serotonin 5-HT2A radioligand binding ([3H]Ketanserin); design: Inhibition of ligand binding, Ser. 5-HT2A: concentration or dose not given beside the values; details: for Inhibition of ligand binding, Ser. 5-HT2A: percent inhibition of specific binding
T3 construct: expressed in transfected cells; host or cells: CHO-K1 cells
Experimental: (§1) Compounds of the invention were incubated with 0.5 nM [^3H]Ketanserin for 60 minutes at 25° C. Non-specific binding was estimated in the presence of 1 μM Mianserin. Receptor proteins were filtered and washed, the filters were then counted to determine [^3H]Ketanserin specifically bound. […] Biochemical assay results are presented as the percent inhibition of specific binding in Table 6.

[4] = biological target: T4, human recombinant serotonin (5-Hydroxytryptamine) 5-HT2C receptor (Homo sapiens, UniProt P28335); test: Serotonin 5-HT2C radioligand binding ([3H]Mesulergine); design: Inhibition of ligand binding, Ser. 5-HT2C: concentration or dose not given beside the values; details: percent inhibition of specific binding
T4 construct: expressed in transfected cells; host or cells: CHO-K1 cells
T4 sequence (P28335 33-458): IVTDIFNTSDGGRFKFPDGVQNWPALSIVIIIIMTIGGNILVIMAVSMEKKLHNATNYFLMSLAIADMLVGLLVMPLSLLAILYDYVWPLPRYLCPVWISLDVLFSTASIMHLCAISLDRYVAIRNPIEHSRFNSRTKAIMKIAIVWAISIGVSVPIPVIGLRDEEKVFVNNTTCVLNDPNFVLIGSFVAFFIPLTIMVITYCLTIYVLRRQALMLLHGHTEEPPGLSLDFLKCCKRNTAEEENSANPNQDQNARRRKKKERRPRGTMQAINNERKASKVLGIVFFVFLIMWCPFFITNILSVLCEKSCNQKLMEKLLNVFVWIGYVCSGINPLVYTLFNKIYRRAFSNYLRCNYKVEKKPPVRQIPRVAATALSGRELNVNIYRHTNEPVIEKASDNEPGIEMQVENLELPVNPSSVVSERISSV
Experimental: as §1, with “1” for “0.5”, “[^3H]Mesulergine” for “[^3H]Ketanserin”

[5] = 0.1 nM [125I]Aminopotentidine, read-out: Histamine Binding H2, percent inhibition of specific binding
[6] = 1 μM compound, 0.1 nM [125I]Aminopotentidine, read-out: Histamine Binding H2, percent inhibition of specific binding
[7] = percent inhibition of specific binding, screened at 1 μM, read-out: Inhibition of ligand binding, Hist. H2

T1 sequence (P25021 whole entry): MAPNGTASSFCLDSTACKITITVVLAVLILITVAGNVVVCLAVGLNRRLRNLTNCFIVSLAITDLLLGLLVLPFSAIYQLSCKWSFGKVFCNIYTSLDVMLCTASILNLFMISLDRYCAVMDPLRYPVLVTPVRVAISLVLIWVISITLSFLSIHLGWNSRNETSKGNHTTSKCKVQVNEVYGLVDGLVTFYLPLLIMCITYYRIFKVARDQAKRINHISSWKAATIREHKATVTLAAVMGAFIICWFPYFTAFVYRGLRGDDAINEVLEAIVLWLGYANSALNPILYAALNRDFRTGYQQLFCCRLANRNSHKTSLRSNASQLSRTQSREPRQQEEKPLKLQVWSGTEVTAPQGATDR
T3 sequence (P28223 whole entry): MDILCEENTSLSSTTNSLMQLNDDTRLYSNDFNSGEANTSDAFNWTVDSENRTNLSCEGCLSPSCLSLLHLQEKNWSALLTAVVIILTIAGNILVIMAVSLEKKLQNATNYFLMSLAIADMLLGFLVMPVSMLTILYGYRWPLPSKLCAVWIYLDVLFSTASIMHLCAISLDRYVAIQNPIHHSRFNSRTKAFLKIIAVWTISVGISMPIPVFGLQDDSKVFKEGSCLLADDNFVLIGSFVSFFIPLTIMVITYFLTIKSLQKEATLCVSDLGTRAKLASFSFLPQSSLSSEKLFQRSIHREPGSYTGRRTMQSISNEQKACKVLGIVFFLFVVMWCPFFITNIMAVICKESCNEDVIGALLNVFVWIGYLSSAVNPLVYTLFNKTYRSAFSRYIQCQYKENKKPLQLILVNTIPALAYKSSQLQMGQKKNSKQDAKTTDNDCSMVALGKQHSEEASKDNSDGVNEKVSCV

Row | inhibition at 1 µM [1, 6] [%] | inhibition at 1 µM [1, 7] [%] | Inhibition of ligand binding, Adren. alpha1D [2] [%] | Inhibition of ligand binding, Ser. 5-HT2C [4] [%] | Compound | inhibition at 0.1 µM [1, 5] [%] | inhibition at 0.3 µM [1, 5] [%] | Inhibition of ligand binding, Ser. 5-HT2A [3] [%] | inhibition at 0.001 µM ([3]; read-out: Inhibition of ligand binding, Ser. 5-HT2A) [%]
1 | 72 | 87 | 94 | 98 | Cc1ccc2c(c1)c1c(n2CCc2ccccc2)CCN(C)C1 [Compound 20, 2,3,4,5-tetrahydro-2,8-dimethyl-5-phenethyl-1H-pyrido[4,3-b]indole] | 33 | 51 | 98 | 
2 | 17 | 17 | 10 | 54 | CN1CCc2c(c3cc(Cl)ccc3n2CC(=O)N2CCCCC2)C1 [Compound 236, 2-(8-chloro-1,2,3,4-tetrahydro-2-methylpyrido[4,3-b]indol-5-yl)-1-(piperidin-1-yl)ethanone] |  |  |  | 
3 | 24 | 24 | 14 | 36 | CC1CCN(C(=O)Cn2c3c(c4cc(Cl)ccc42)CN(C)CC3)CC1 [Compound 237, 2-(8-chloro-1,2,3,4-tetrahydro-2-methylpyrido[4,3-b]indol-5-yl)-1-(4-methylpiperidin-1-yl)ethanone] |  |  |  | 
4 | 6 | 6 | 2 | 20 | CN1CCc2c(c3cc(Cl)ccc3n2CC(=O)N2CCOCC2)C1 [Compound 238, 2-(8-chloro-1,2,3,4-tetrahydro-2-methylpyrido[4,3-b]indol-5-yl)-1-morpholinoethanone] |  |  |  | 
5 | 10 | 10 | 3 | 65 | CN1CCc2c(c3cc(Cl)ccc3n2CC(=O)N2CCSCC2)C1 [Compound 239, 2-(8-chloro-1,2,3,4-tetrahydro-2-methylpyrido[4,3-b]indol-5-yl)-1-thiomorpholinoethanone] |  |  |  | 
6 | 23 | 23 | 42 | 27 | CN1CCc2c(c3cc(Cl)ccc3n2CCC(=O)N2CCCC2)C1 [Compound 240, 3-(8-chloro-1,2,3,4-tetrahydro-2-methylpyrido[4,3-b]indol-5-yl)-1-(pyrrolidin-1-yl)propan-1-one] |  |  |  | 
7 | 17 | 17 | 8 | 33 | CN1CCc2c(c3cc(Cl)ccc3n2CC(=O)N2CCCC2)C1 [Compound 243, 2-(8-chloro-1,2,3,4-tetrahydro-2-methylpyrido[4,3-b]indol-5-yl)-1-(pyrrolidin-1-yl)ethanone] |  |  |  | 
8 | 10 | 10 | 12 | 22 | CN1CCc2c(c3cc(Cl)ccc3n2CC(=O)N2CCNCC2)C1 [Compound 244] |  |  |  | 
9 | 8 | 8 | 1 | 20 | CC1CN(C(=O)Cn2c3c(c4cc(Cl)ccc42)CN(C)CC3)CC(C)N1 (stereo not drawn) [Compound 245] |  |  |  | 
10 | 16 | 16 | 12 | 59 | CN1CCc2c(c3cc(Cl)ccc3n2CC(=O)N2CCNC(=O)C2)C1 [Compound 246] |  |  |  | 
11 |  | 3 | 15 | 11 | CC(=O)N1CCN(C(=O)Cn2c3c(c4cc(Cl)ccc42)CN(C)CC3)CC1 [Compound 297, 1-(4-Acetyl-piperazin-1-yl)-2-(8-chloro-2-methyl-1,2,3,4-tetrahydro-pyrido[4,3-b]indol-5-yl)-ethanone] |  |  |  | 
12 |  | 25 | 4 | 61 | CC1CCCCN1C(=O)Cn1c2c(c3cc(Cl)ccc31)CN(C)CC2 (stereo not drawn) [Compound 321, 2-(8-chloro-1,2,3,4-tetrahydro-2-methylpyrido[4,3-b]indol-5-yl)-1-(2-methylpiperidin-1-yl)ethanone] |  |  |  | 

More lines, now with the values behind:

Row | Compound | inhibition at 1 µM [1, 6] [%] | inhibition at 1 µM [1, 7] [%] | Inhibition of ligand binding, Adren. alpha1D [2] [%] | Inhibition of ligand binding, Ser. 5-HT2C [4] [%] | inhibition at 0.1 µM [1, 5] [%] | inhibition at 0.3 µM [1, 5] [%] | Inhibition of ligand binding, Ser. 5-HT2A [3] [%] | inhibition at 0.001 µM ([3]; read-out: Inhibition of ligand binding, Ser. 5-HT2A) [%]
13 | Cc1ccc2c(c1)c1c(n2CCc2ccccn2)CCN(C)C1 [Compound 21, 2,3,4,5-tetrahydro-2,8-dimethyl-5-(2-(pyridin-2-yl)ethyl)-1H-pyrido[4,3-b]indole] | 45 | 45 | 76 | 87 |  |  | 94 | 
14 | Cc1ccc(CCn2c3c(c4cc(C)ccc42)CN(C)CC3)cc1 [Compound 25, 2,3,4,5-tetrahydro-2,8-dimethyl-5-(4-methylphenethyl)-1H-pyrido[4,3-b]indole] | 96 | 96 |  | 99 | 54 | 75 | 93 | 
15 | CCN1CCc2c(c3cc(C)ccc3n2CCc2ccncc2)C1 [Compound 27, 2-ethyl-2,3,4,5-tetrahydro-8-methyl-5-(2-(pyridin-4-yl)ethyl)-1H-pyrido[4,3-b]indole] | 32 | 32 | 63 | 29 |  |  | 63 | 
16 | Cc1ccc2c(c1)c1c(n2CCc2ccc(C)nc2)CCNC1 [Compound 230, 2,3,4,5-tetrahydro-8-methyl-5-(2-(6-methylpyridin-3-yl)ethyl)-1H-pyrido[4,3-b]indole] | 6 | 30 | 75 | 36 |  |  | 33 | 
17 | COc1ccc(CCn2c3c(c4cc(C)ccc42)CN(C)CC3)cc1 [Compound 247] | 97 | 97 | 95 | 93 |  |  |  | 22
18 | Cc1ccc2c(c1)c1c(n2CCc2ccc(CO)nc2)CCN(C)C1 [Compound 267] |  | 42 | 92 | 76 |  |  | 73 | 
19 | CCOC(=O)c1ccc(CCn2c3c(c4cc(C)ccc42)CN(C)CC3)cn1 [Compound 275, ethyl 5-(2-(1,2,3,4-tetrahydro-2,8-dimethylpyrido[4,3-b]indol-5-yl)ethyl)pyridine-2-carboxylate] |  | 20 | 87 | 31 |  |  | 39 | 
20 | CN1CCc2c(c3cc(Cl)ccc3n2CC(=O)N2CCS(=O)(=O)CC2)C1 [Compound 295] |  | 10 | 4 | −19 |  |  | 0 | 

Source: patent US9096591B2, “Tetracyclic compounds” (Medivation Technologies, Inc., priority 2007, dated 2015)
